# Measurements published in article PMC10743564, “Acceleration of Protein Degradation by 20S Proteasome-Binding Peptides Generated by In Vitro Artificial Evolution” (International Journal of Molecular Sciences, 2023).
# Where no end group is shown, it is not given here. BAED = biotinylated photoreactive group derived from Sulfo-SBED
# How the values were obtained:
# [1] = target: T1, intracellular proteasomes of U251 cells (Homo sapiens, UniProt P25787+P60900); test: Intracellular proteasome CT-L activity (Proteasome-Glo) in U251 cells; assay type: cell-based
# T1 construct: endogenous in cells; host or cells: U251, RPMI8226, SH-SY5Y
# Experimental: Intracellular proteasome activity was measured using the Proteasome-Glo Assay reagent (Promega Co.) according to the manufacturer’s protocol [46].
# U251 cells = test: Cell growth inhibition assay (CellTiter-Glo); assay type: cell-based, human
# Experimental: The U251 cell line was kindly provided by Prof. Koji Kawakami (Kyoto University). RPMI8226 and SH-SY5Y cell lines were obtained from RIKEN BRC Cell Bank (Chiba, Japan). U251 and RPMI8226 cells were grown and maintained in RPMI1640 medium (Nacalai Tesque Inc.) supplemented with 10% fetal bovine serum, 100 units/mL penicillin, and 100 μg/mL streptomycin at 37 °C in 5% CO2. SH-SY5Y cells were grown and maintained in DMEM medium (Nacalai Tesque Inc.) supplemented with 10% fetal bovine serum, 100 units/mL penicillin, and 100 μg/mL streptomycin at 37 °C in 5% CO2.
# U251, RPMI8226, or SH-SY5Y cells were seeded in triplicate wells in a 96-well plate at a density of 5 × 10^3 cells/well and incubated with various concentrations (0.1–100 µM) of inhibitory compounds dissolved in DMSO for 24 or 48 h. The amount of intracellular ATP was determined by CellTiter-Glo Luminescent Cell Viability Assay (Promega Co.) according to the manufacturer’s protocol. Intracellular proteasome activity was measured using the Proteasome-Glo Assay reagent (Promega Co.) according to the manufacturer’s protocol.
# human 20S proteasome = human 20S proteasome (Homo sapiens, UniProt P25787+P60900); test: Photoaffinity labeling of 20S CP; assay type: binding; settings: UV 365 nm, 2D-PAGE, LC-MS identification
# Experimental: After the reaction, the product was purified by reversed-phase HPLC, and molecular weight was confirmed by mass spectrometry, as described above.
# (§1) The reaction mixture was exposed to UV light (365 nm) for 30 min on ice, and proteins were separated by SDS-PAGE, transferred onto a polyvinylidene difluoride membrane (ATTO Co., Ltd., Tokyo, Japan), and probed with horseradish peroxidase-conjugated streptavidin (Cytiva, Danaher Co., Washington, DC, USA). Chemiluminescence images were obtained using an ImageQuant LAS-4000 instrument (Cytiva). Isoelectric focusing for 2D-PAGE was performed using a DiscRun AE-6541 apparatus (ATTO Co., Ltd.) according to the manufacturer’s protocol. To identify the subunits of the 20S CP by LC-MS analysis, all bands visible following CBB staining were excised, dehydrated with acetonitrile for 10 min, and centrifuged in vacuo to dryness. Dried samples were placed in trypsin solution, and hydrolysis was carried out at 37 °C for 16 h. Reaction products were recovered using 0.1% formic acid and analyzed by LC-MS-IT-TOF (Shimadzu Corporation, Kyoto, Japan) and Mascot Version 2.4 (Matrix Science, London, UK).
# 26S holoenzyme = 26S holoenzyme (Homo sapiens, UniProt P25787+P60900); test: Photoaffinity labeling of 26S holoenzyme; assay type: binding; settings: after UV irradiation
# Experimental: as §1
Photoaffinity-labeled subunits of 20S CP (human 20S proteasome),Photoaffinity labeling of 26S holoenzyme (in words) (26S holoenzyme),Molecule,Effect on CT-L activity of intracellular proteasomes (in words) [1],Cell death (in words) (U251 cells)
–,–,CC(C)C[C@H](NC(=O)[C@H](Cc1ccccc1)NC(=O)c1cnccn1)B(O)O [bortezomib],did not increase CT-L activity to the same degree,induced cancer cell death
α1 and β4 subunits,no detectable labeling,"BAED-20S-BP1(5-12): photoreactive biotinylated peptide: 20S-BP1(5-12) with N-terminal BAED group, made with Sulfo-SBED ({BAED}-SRLRHWWR)",–,–
